Nine compounds from publication PMC11249977, “Investigating Penetration and Antimicrobial Activity of Vector-Bicycle Conjugates” (ACS Infectious Diseases, 2024) can be followed below.

≈ marks a conversion by molar mass, not a printed value. Like-named read-outs stand apart in the source and are kept apart here. Non-standard residues stand in square brackets, D forms with d. Residues, ends and D or L forms follow the SMILES beside them. Dap(N3) = [N-]=[N+]=NC[C@H](N)C(=O)O

For this test, the system named is E. coli (ATCC25922). Type of test: cell-based, Escherichia coli. To be noted: for MIC (μg/ml), repeat 1 / MIC (μg/ml), repeat 2 / MIC (μg/ml), repeat 3: ATCC25922. An excerpt:
To determine how the cell killing ability of the vector-Bicycle variants changed when compared to the original vector, their antimicrobial activity was examined against a clinical strain of E. coli (ATCC25922) in cation-adjusted Mueller Hinton broth (CaMHB). The minimum inhibitory concentration (MIC) is defined as the lowest concentration of compound that completely prevents bacterial growth (Table 2). The unconjugated Bicycle molecule (AB1) and the original unconjugated vector (AV1) were used to make the MAP-Bicycle conjugate A1. All MAP-Bicycle conjugates contain the AB1 Bicycle molecule, linked to a variant of the original MAP (e.g., C2, S2, H6). The unconjugated MAP variants are labeled with the equivalent letter and number but with a “V” included in the name (e.g., CV2, SV2, HV6, see Table 1 for all vector variants).
Bacterial stock was streaked onto LB agar plates and incubated at 37 °C for 16–18 h. Using a sterile swab, single colonies were picked and resuspended in 2 mL of 0.9% saline solution, visually matching the turbidity of a 0.5 McFarland standard and having an OD600 nm of 0.18–0.25 (which corresponds to […]). The suspension was diluted 200-fold in cation-adjusted Mueller–-Hinton Broth (Ca-MHB), and 100 μL of the diluted culture was pipetted in wells of a 96-well plate containing 100 μL of a 2-factor dilution series of a compound per row of wells. The plate was incubated at 37 °C for 19 h. Afterward, the OD600 nm of each well was read using a Pherastar FSX plate reader. MIC values were determined, with the MIC being the lowest concentration of the compound at which growth was absent (i.e., OD600 nm was equivalent to no growth, as observed in carbenicillin control wells). This was also verified visually. […]

Setting [1] is: E. coli ATCC25922, CaMHB, 37 °C, 19 h, OD600 nm read, range of at least 3 biological repeats.

As usually defined, the MIC is the least concentration at which growth counts as inhibited. Read a low MIC as inhibition by little substance. Turning to `CC(C)C[C@@H](NC(=O)[C@@H](CCCNC(=N)N)NC(=O)[C@@H](CCCNC(=N)N)NC(=O)[C@@H](CCCNC(=N)N)NC(=O)[C@@H](Cc1c[nH]c2ccccc12)NC(=O)[C@@H](CCCNC(=N)N)NC(=O)[C@@H](CO)NC(=O)[C@@H](Cc1c[nH]c2ccccc12)NC(=O)[C@@H](CCCNC(=N)N)NC(=O)[C@@H](N)CN=[N+]=[N-])C(=O)N[C@H](CO)C(=O)N[C@H](CCCCN)C(N)=O` [CV4] (H-[Dap(N3)][dR][dW][dS][dR][dW][dR][dR][dR][dL][dS][dK]-NH2; N-terminus and C-terminus assumed), the minimal inhibitory concentration (MIC) (ATCC25922, 19 h) amounted to 18.8 µM and the “MIC” value under setting [1] came to 32 µg/mL.

Consider `CC(C)C[C@@H](NC(=O)[C@@H](CCCNC(=N)N)NC(=O)[C@@H](CCCNC(=N)N)NC(=O)[C@H](NC(=O)[C@@H](CCCNC(=N)N)NC(=O)[C@@H](CCCNC(=N)N)NC(=O)[C@@H](CO)NC(=O)[C@@H](Cc1c[nH]c2ccccc12)NC(=O)[C@@H](CCCNC(=N)N)NC(=O)[C@@H](N)CN=[N+]=[N-])C(C)C)C(=O)N[C@H](CO)C(=O)N[C@H](CCCCN)C(N)=O` [CV3] (H-[Dap(N3)][dR][dW][dS][dR][dR][dV][dR][dR][dL][dS][dK]-NH2; N-terminus and C-terminus assumed), for which the “MIC (μg/ml), repeat 1” value was greater than 64 µg/mL; the “MIC (μg/ml), repeat 2” value is greater than 64 µg/mL; the “MIC (μg/ml), repeat 3” value was greater than 64 µg/mL. Besides, the minimum inhibitory concentration (MIC) (ATCC25922, 19 h) was greater than 39.7 µM.

Take `CC(C)C[C@@H](NC(=O)[C@@H](CCCNC(=N)N)NC(=O)[C@@H](CCCNC(=N)N)NC(=O)[C@H](NC(=O)[C@@H](Cc1c[nH]c2ccccc12)NC(=O)[C@@H](CCCNC(=N)N)NC(=O)[C@@H](CCCNC(=N)N)NC(=O)[C@@H](CCCNC(=N)N)NC(=O)[C@@H](CCCNC(=N)N)NC(=O)[C@@H](N)CN=[N+]=[N-])C(C)C)C(=O)N[C@H](CO)C(=O)N[C@H](CCCCN)C(N)=O` [CV8] (H-[Dap(N3)][dR][dR][dR][dR][dW][dV][dR][dR][dL][dS][dK]-NH2; N-terminus and C-terminus assumed): the “MIC (μg/ml), repeat 1” value was found to be 64 µg/mL (≈ 38.1 µM); the “MIC (μg/ml), repeat 2” value was 64 µg/mL (≈ 38.1 µM); the “MIC (μg/ml), repeat 3” value was greater than 64 µg/mL.

Regarding `CC(C)C[C@@H](NC(=O)[C@@H](CCCNC(=N)N)NC(=O)[C@@H](CCCNC(=N)N)NC(=O)[C@H](NC(=O)[C@@H](Cc1c[nH]c2ccccc12)NC(=O)[C@@H](CCCNC(=N)N)NC(=O)[C@@H](CO)NC(=O)[C@@H](CCCNC(=N)N)NC(=O)[C@@H](CCCNC(=N)N)NC(=O)[C@@H](N)CN=[N+]=[N-])C(C)C)C(=O)N[C@H](CO)C(=O)N[C@H](CCCCN)C(N)=O` [CV1] (H-[Dap(N3)][dR][dR][dS][dR][dW][dV][dR][dR][dL][dS][dK]-NH2; N-terminus and C-terminus assumed), the “MIC (μg/ml), repeat 1” value is greater than 64 µg/mL; the “MIC (μg/ml), repeat 2” value was greater than 64 µg/mL; the “MIC (μg/ml), repeat 3” value is greater than 64 µg/mL. Also, for the setting “ATCC25922, 19 h”, the minimal inhibitory concentration (MIC) is greater than 39.7 µM.

In the case of `CC(C)C[C@@H](NC(=O)[C@@H](CCCNC(=N)N)NC(=O)[C@@H](CCCNC(=N)N)NC(=O)[C@H](NC(=O)[C@@H](Cc1c[nH]c2ccccc12)NC(=O)[C@@H](CCCNC(=N)N)NC(=O)[C@@H](CO)NC(=O)[C@@H](Cc1c[nH]c2ccccc12)NC(=O)[C@@H](CCCNC(=N)N)NC(=O)[C@@H](N)CN=[N+]=[N-])C(C)C)C(=O)N[C@H](CO)C(=O)N[C@H](CCCCN)C(N)=O` [AV1] (H-[Dap(N3)][dR][dW][dS][dR][dW][dV][dR][dR][dL][dS][dK]-NH2; N-terminus and C-terminus assumed), the minimal inhibitory concentration (MIC) by setting is: (ATCC25922, 19 h) 19.5 µM; under setting [1], 32 µg/mL.

For `CC(C)C[C@@H](NC(=O)[C@@H](CCCNC(=N)N)NC(=O)[C@@H](CCCNC(=N)N)NC(=O)[C@H](NC(=O)[C@@H](Cc1c[nH]c2ccccc12)NC(=O)[C@@H](CCCNC(=N)N)NC(=O)[C@@H](CCCNC(=N)N)NC(=O)[C@@H](Cc1c[nH]c2ccccc12)NC(=O)[C@@H](CCCNC(=N)N)NC(=O)[C@@H](N)CN=[N+]=[N-])C(C)C)C(=O)N[C@H](CO)C(=O)N[C@H](CCCCN)C(N)=O` [CV2] (H-[Dap(N3)][dR][dW][dR][dR][dW][dV][dR][dR][dL][dS][dK]-NH2; N-terminus and C-terminus assumed), the minimal inhibitory concentration (MIC) was 9.4 µM (ATCC25922, 19 h) and 16 µg/mL under setting [1].

Consider “CAzal - dR dW dS dR dW dV dR dR dR dR dK – CONH2 [CV12, standalone MAP vector variant of AV1, double arginine substitution]”, for which, under setting [1], the minimum inhibitory concentration (MIC) is 16 µg/mL.

On to `CC(C)[C@@H](NC(=O)[C@@H](Cc1c[nH]c2ccccc12)NC(=O)[C@@H](CCCNC(=N)N)NC(=O)[C@@H](CO)NC(=O)[C@@H](Cc1c[nH]c2ccccc12)NC(=O)[C@@H](CCCNC(=N)N)NC(=O)[C@@H](N)CN=[N+]=[N-])C(=O)N[C@H](CCCNC(=N)N)C(=O)N[C@H](CCCNC(=N)N)C(=O)N[C@H](CCCNC(=N)N)C(=O)N[C@H](CO)C(=O)N[C@H](CCCCN)C(N)=O` [CV5] (H-[Dap(N3)][dR][dW][dS][dR][dW][dV][dR][dR][dR][dS][dK]-NH2; N-terminus and C-terminus assumed), for which the “MIC” value reads like this: (ATCC25922, 19 h) 19 µM; under setting [1], 32 µg/mL.

Consider “CAzal - dR dW dS dR dW dV dR dR dL dR dK – CONH2 [CV6, standalone MAP vector variant of AV1, single arginine substitution]”, for which, under setting [1], the “MIC” value worked out at 16 µg/mL.
